Experiments:
Assay type in all cases: functional
[1] = system: OVCAR-8; experiment: Growth inhibition of human OVCAR8 cells after 48 hrs by SRB staining method; settings: OVCAR-8, 48 h
[2] = system: IGROV-1; experiment: Growth inhibition of human IGROV1 cells after 48 hrs by SRB staining method; settings: IGROV-1, 48 h
[3] = system: U-251; experiment: Growth inhibition of human U251 cells after 48 hrs by SRB staining method; settings: U-251, 48 h
[4] = system: SR; experiment: Growth inhibition of human SR cells after 48 hrs by SRB staining method
[5] = system: SK-OV-3; experiment: Growth inhibition of human SKOV3 cells after 48 hrs by SRB staining method; settings: SK-OV-3, 48 h
[6] = system: PC-3; experiment: Growth inhibition of human PC3 cells after 48 hrs by SRB staining method; settings: PC-3, 48 h
[7] = system: CAKI-1; experiment: Growth inhibition of human CAKI1 cells after 48 hrs by SRB staining method; settings: CAKI-1, 48 h
[8] = system: MDA-MB-231; experiment: Growth inhibition of human MDA-MB-231 cells after 48 hrs by SRB staining method; settings: MDA-MB-231, 48 h
[9] = system: NCI/ADR-RES; experiment: Growth inhibition of human NCI/ADR-RES cells after 48 hrs by SRB staining method
[10] = system: OVCAR-5; experiment: Growth inhibition of human OVCAR5 cells after 48 hrs by SRB staining method; settings: OVCAR-5, 48 h
[11] = system: NCI-H23; experiment: Growth inhibition of human NCI-H23 cells after 48 hrs by SRB staining method; settings: NCI-H23, 48 h
[12] = system: UACC-257; experiment: Growth inhibition of human UACC257 cells after 48 hrs by SRB staining method; settings: UACC-257, 48 h
[13] = system: SF-295; experiment: Growth inhibition of human SF295 cells after 48 hrs by SRB staining method; settings: SF-295, 48 h
[14] = system: UO-31; experiment: Growth inhibition of human UO31 cells after 48 hrs by SRB staining method; settings: UO-31, 48 h
[15] = system: COLO 205; experiment: Growth inhibition of human COLO205 cells after 48 hrs by SRB staining method; settings: COLO 205, 48 h
[16] = system: UACC-62; experiment: Growth inhibition of human UACC62 cells after 48 hrs by SRB staining method; settings: UACC-62, 48 h
[17] = system: SK-MEL-2; experiment: Growth inhibition of human SK-MEL-2 cells after 48 hrs by SRB staining method; settings: SK-MEL-2, 48 h
[18] = system: ACHN; experiment: Growth inhibition of human ACHN cells after 48 hrs by SRB staining method
[19] = system: NCI-H460; experiment: Growth inhibition of human NCI-H460 cells after 48 hrs by SRB staining method; settings: NCI-H460, 48 h
[20] = system: T47D; experiment: Growth inhibition of human T47D cells after 48 hrs by SRB staining method
[21] = system: HCT-15; experiment: Growth inhibition of human HCT15 cells after 48 hrs by SRB staining method; settings: HCT-15, 48 h
[22] = system: SF-268; experiment: Growth inhibition of human SF268 cells after 48 hrs by SRB staining method; settings: SF-268, 48 h
[23] = system: HL-60; experiment: Growth inhibition of human HL60 cells after 48 hrs by SRB staining method; settings: HL-60, 48 h
[24] = system: MCF7; experiment: Growth inhibition of human MCF7 cells after 48 hrs by SRB staining method; settings: MCF7, 48 h
[25] = system: A498; experiment: Growth inhibition of human A498 cells after 48 hrs by SRB staining method; settings: A498, 48 h
[26] = system: K562; experiment: Growth inhibition of human K562 cells after 48 hrs by SRB staining method; settings: K562, 48 h
[27] = system: RXF 393; experiment: Growth inhibition of human RXF393 cells after 48 hrs by SRB staining method; settings: RXF 393, 48 h
[28] = system: DU-145; experiment: Growth inhibition of human DU145 cells after 48 hrs by SRB staining method; settings: DU-145, 48 h
[29] = system: Malme-3M; experiment: Growth inhibition of human MALME-3M cells after 48 hrs by SRB staining method
[30] = system: SNB-19; experiment: Growth inhibition of human SNB19 cells after 48 hrs by SRB staining method; settings: SNB-19, 48 h
[31] = system: 786-0; experiment: Growth inhibition of human 786-0 cells after 48 hrs by SRB staining method; settings: 786-0, 48 h
[32] = system: BT-549; experiment: Growth inhibition of human BT549 cells after 48 hrs by SRB staining method; settings: BT-549, 48 h
[33] = read-out: pLC50 (the source's name) (converted)

COc1cc(Nc2nc3cc(N)cc(N)c3nc2-c2ccccc2)cc(OC)c1OC
GI50 [1]: 15.5 µM | CC50 [1, 33]: 79.4 µM | TGI ([1]; read-out: pTGI (converted)): 34.7 µM | GI50 [2]: 15.8 µM | LC50 [2]: > 100 µM | TGI ([2]; read-out: pTGI (converted)): 57.5 µM | GI50 [3]: 24.5 µM | LC50 (50% lethal concentration) [3]: > 100 µM | TGI ([3]; read-out: pTGI (converted)): > 100 µM | GI50 [4]: 3.31 µM | CC50 [4, 33]: 72.4 µM | TGI ([4]; read-out: pTGI (converted)): 15.8 µM | GI50 [5]: 22.9 µM | CC50 [5, 33]: > 100 µM | TGI ([5]; read-out: pTGI (converted)): 57.5 µM | GI50 [6]: 14.1 µM | CC50 [6, 33]: > 100 µM | TGI ([6]; read-out: pTGI (converted)): 58.9 µM | GI50 [7]: 15.5 µM | CC50 [7, 33]: > 100 µM | TGI ([7]; read-out: pTGI (converted)): 49 µM | GI50 [8]: 11.2 µM | CC50 [8, 33]: 77.6 µM | TGI ([8]; read-out: pTGI (converted)): 29.5 µM | GI50 [9]: 14.5 µM | CC50 [9, 33]: > 100 µM | TGI ([9]; read-out: pTGI (converted)): 43.7 µM | GI50 [10]: 21.4 µM | LC50 [10]: > 100 µM | TGI ([10]; read-out: pTGI (converted)): 46.8 µM | GI50 [11]: 25.1 µM | LC50 [11]: > 100 µM | TGI ([11]; read-out: pTGI (converted)): 75.9 µM | GI50 [12]: 29.5 µM | LC50 [12]: > 100 µM | TGI ([12]; read-out: pTGI (converted)): > 100 µM | GI50 [13]: 15.8 µM | LC50 [13]: > 100 µM | TGI ([13]; read-out: pTGI (converted)): 42.7 µM | GI50 [14]: 15.1 µM | CC50 [14, 33]: > 100 µM | TGI ([14]; read-out: pTGI (converted)): 91.2 µM | GI50 [15]: 14.1 µM | LC50 [15]: 52.5 µM | TGI ([15]; read-out: pTGI (converted)): 26.9 µM | GI50 [16]: 13.5 µM | LC50 [16]: 74.1 µM | TGI ([16]; read-out: pTGI (converted)): 31.6 µM | GI50 [17]: 15.8 µM | LC50 [17]: 77.6 µM | TGI ([17]; read-out: pTGI (converted)): 35.5 µM | GI50 [18]: 16.6 µM | CC50 [18, 33]: > 100 µM | TGI ([18]; read-out: pTGI (converted)): 42.7 µM | GI50 [19]: 17 µM | LC50 (concentration killing 50% of cells) [19]: > 100 µM | TGI ([19]; read-out: pTGI (converted)): 52.5 µM | GI50 [20]: 6.03 µM | CC50 [20, 33]: 95.5 µM | TGI ([20]; read-out: pTGI (converted)): 31.6 µM | GI50 [21]: 15.1 µM | LC50 [21]: > 100 µM | TGI ([21]; read-out: pTGI (converted)): 45.7 µM | GI50 [22]: 18.2 µM | CC50 [22, 33]: > 100 µM | TGI ([22]; read-out: pTGI (converted)): 60.3 µM | GI50 [23]: 6.61 µM | CC50 [23, 33]: 64.6 µM | TGI ([23]; read-out: pTGI (converted)): 23.4 µM | GI50 [24]: 25.7 µM | CC50 [24, 33]: > 100 µM | TGI ([24]; read-out: pTGI (converted)): 95.5 µM | GI50 [25]: 31.6 µM | CC50 [25, 33]: > 100 µM | TGI ([25]; read-out: pTGI (converted)): > 100 µM | GI50 [26]: 12.6 µM | CC50 [26, 33]: > 100 µM | TGI ([26]; read-out: pTGI (converted)): 39.8 µM | GI50 [27]: 14.5 µM | CC50 [27, 33]: 83.2 µM | TGI ([27]; read-out: pTGI (converted)): 34.7 µM | GI50 [28]: 21.9 µM | CC50 [28, 33]: > 100 µM | TGI ([28]; read-out: pTGI (converted)): 74.1 µM | GI50 [29]: 12.9 µM | LC50 [29]: 61.7 µM | TGI ([29]; read-out: pTGI (converted)): 28.2 µM | GI50 [30]: 33.1 µM | LC50 [30]: > 100 µM | TGI ([30]; read-out: pTGI (converted)): > 100 µM | GI50 [31]: 14.5 µM | CC50 [31, 33]: > 100 µM | TGI ([31]; read-out: pTGI (converted)): 40.7 µM | GI50 [32]: 17 µM | CC50 [32, 33]: 67.6 µM | TGI ([32]; read-out: pTGI (converted)): 17 µM

— ChEMBL document CHEMBL1149774, “Synthesis of N-(5,7-diamino-3-phenyl-quinoxalin-2-yl)-3,4,5-substituted anilines and N-[4[(5,7-diamino-3-phenylquinoxalin-2-yl)amino]benzoyl]-l-glutamic acid diethyl ester: evaluation of in vitro anti-cancer and anti-folate activities” (Eur J Med Chem, 2008)
